From patent US20260295053A1, “COMPOUNDS FOR DEGRADATION AND INHIBITION OF KRAS (G12D) PROTEIN” (Shenzhen Ionova Life Science Co., Ltd., priority 2023, published 2026)

Key:
[1] = target: T1, KRAS (G12D) (Homo sapiens, UniProt P01116, G12D); assay: KRAS (G12D) cellular degradation assay in AsPC-1 cells; assay type: cell-based; conditions: 24 hours, antibody fluorescence (Odyssey CLX), DC50 half-maximal degradation concentration
T1 construct: in-cell western with KRAS G12D antibody after 24 h
Summary of the method: (§1)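 AsPC-1 cells: for degradation, grown to ~90% confluency, treated 24 h with 1:3 compound series ([…] to 1.5 nM), then fixed and immunostained for KRAS G12D and β-actin, read by infrared fluorescence, DC50 fitted. Proliferation: 3,500 cells/well, 6-day treatment, CellTiter Glo luminescence, IC50 fitted.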

[2] = system: AsPC-1 cells; assay: AsPC-1 cell proliferation assay (CellTiter Glo); assay type: cell-based; conditions: 6 days
Summary of the method: as §1

T1 sequence (P01116 1-188 isoform P01116-2 G12D): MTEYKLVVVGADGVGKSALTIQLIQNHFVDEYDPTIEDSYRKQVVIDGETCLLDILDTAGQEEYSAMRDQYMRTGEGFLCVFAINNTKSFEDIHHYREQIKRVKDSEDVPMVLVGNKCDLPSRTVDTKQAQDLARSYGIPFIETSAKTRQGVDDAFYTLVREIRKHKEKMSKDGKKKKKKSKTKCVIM

Row | Compound | DC50 [1] | IC50 ([2]; Homo sapiens, ASPC1, 144 h) | IC50 [2]
1 | CCn1nccc1-c1ccc([C@@H](NC(=O)[C@@H]2C[C@@H](O)CN2C(=O)[C@H](C(C)C)n2cc(-c3ccc(COc4c(-c5c(C)c(F)cc6[nH]ncc56)c(C5CC5)cc5c(N6C[C@@H]7C[C@H]6CN7)nc(O[C@H]6C[C@H](OC)C6)nc45)cc3)nn2)[C@H](C)O)c2c1CC2 [Example 147, (2S,4R)-1-((2S)-2-(4-(4-(((4-((1S,4S)-2,5-diazabicyclo[2.2.1]heptan-2-yl)-6-cyclopropyl-7-(6-fluoro-5-methyl-1H-indazol-4-yl)-2-((1r,3S)-3-methoxycyclobutoxy)quinazolin-8-yl)oxy)methyl)phenyl)-1H-1,2,3-triazol-1-yl)-3-methylbutanoyl)-N-((1R,2S)-1-(5-(1-ethyl-1H-pyrazol-5-yl)bicyclo[4.2.0]octa-1(6),2,4-trien-2-yl)-2-hydroxypropyl)-4-hydroxypyrrolidine-2-carboxamide] | < 10 nM | < 10 nM | –
2 | CO[C@@H](C)COc1nc(N(C)[C@H]2CCNC2)c2cc(C3CCC3)c(-c3c(C)c(F)cc4[nH]ncc34)c(OCc3ccc(-c4cn([C@H](C(=O)N5C[C@H](O)C[C@H]5C(=O)N[C@H](c5ccc(-c6scnc6C)cc5)[C@H](C)O)C(C)C)nn4)cc3)c2n1 [Example 159, (2S,4R)-1-((2S)-2-(4-(4-(((6-cyclobutyl-7-(6-fluoro-5-methyl-1H-indazol-4-yl)-2-((S)-2-methoxypropoxy)-4-(methyl((S)-pyrrolidin-3-yl)amino)quinazolin-8-yl)oxy)methyl)phenyl)-1H-1,2,3-triazol-1-yl)-3-methylbutanoyl)-4-hydroxy-N-((1R,2S)-2-hydroxy-1-(4-(4-methylthiazol-5-yl)phenyl)propyl)pyrrolidine-2-carboxamide] | < 10 nM | – | < 10 nM
3 | Cc1ncsc1-c1ccc([C@H](CO)NC(=O)[C@@H]2C[C@@H](O)CN2C(=O)[C@H](C(C)C)n2cc(-c3ccc(COc4c(-c5c(C)c(F)cc6[nH]ncc56)c(C5CC5)cc5c(N6C[C@@H]7C[C@H]6CN7)nc(OC6CC7(COC7)C6)nc45)cc3)nn2)cc1 [Example 129, (2S,4R)-1-((2S)-2-(4-(4-(((2-((2-oxaspiro[3.3]heptan-6-yl)oxy)-4-((1S,4S)-2,5-diazabicyclo[2.2.1]heptan-2-yl)-6-cyclopropyl-7-(6-fluoro-5-methyl-1H-indazol-4-yl)quinazolin-8-yl)oxy)methyl)phenyl)-1H-1,2,3-triazol-1-yl)-3-methylbutanoyl)-4-hydroxy-N—((R)-2-hydroxy-1-(4-(4-methylthiazol-5-yl)phenyl)ethyl)pyrrolidine-2-carboxamide] | < 10 nM | < 10 nM | –
4 | CCn1nccc1-c1ccc([C@H](CO)NC(=O)[C@@H]2C[C@@H](O)CN2C(=O)[C@H](C(C)C)n2cc(-c3ccc(COc4c(-c5c(C)c(F)cc6[nH]nc(F)c56)c(C5CC5)cc5c(N6C[C@@H]7C[C@H]6CN7)nc(OC[C@H](C)OC)nc45)cc3)nn2)cc1 [Example 33, (2S,4R)-1-((2S)-2-(4-(4-(((4-((1S,4S)-2,5-diazabicyclo[2.2.1]heptan-2-yl)-6-cyclopropyl-7-(3,6-difluoro-5-methyl-1H-indazol-4-yl)-2-((S)-2-methoxypropoxy)quinazolin-8-yl)oxy)methyl)phenyl)-1H-1,2,3-triazol-1-yl)-3-methylbutanoyl)-N—((R)-1-(4-(1-ethyl-1H-pyrazol-5-yl)phenyl)-2-hydroxyethyl)-4-hydroxypyrrolidine-2-carboxamide] | < 10 nM | < 10 nM | –
5 | CCn1nccc1-c1ccc([C@H](CO)NC(=O)[C@@H]2C[C@@H](O)CN2C(=O)[C@H](C(C)C)n2cc(-c3ccc(COc4c(-c5c(C)c(F)cc6[nH]ncc56)c(C5CC5)cc5c(N6CCC=CCC6)nc(OC[C@H](C)OC)nc45)cc3)nn2)cc1 [Example 158, (2S,4R)-1-((2S)-2-(4-(4-(((6-cyclopropyl-7-(6-fluoro-5-methyl-1H-indazol-4-yl)-2-((S)-2-methoxypropoxy)-4-(2,3,6,7-tetrahydro-1H-azepin-1-yl)quinazolin-8-yl)oxy)methyl)phenyl)-1H-1,2,3-triazol-1-yl)-3-methylbutanoyl)-N—((R)-1-(4-(1-ethyl-1H-pyrazol-5-yl)phenyl)-2-hydroxyethyl)-4-hydroxypyrrolidine-2-carboxamide] | 10 to 100 nM | 10 to 100 nM | –
6 | CCn1nccc1-c1ccc([C@H](CO)NC(=O)[C@@H]2C[C@@H](O)CN2C(=O)[C@H](C(C)C)n2cc(-c3ccc(COc4c(-c5c(C)c(F)cc6[nH]ncc56)c(C5CC5)cc5c(N6CCNCC[C@H]6C)nc(OC[C@H](C)OC)nc45)cc3)nn2)cc1 [Example 154, (2S,4R)-1-((2S)-2-(4-(4-(((6-cyclopropyl-7-(6-fluoro-5-methyl-1H-indazol-4-yl)-2-((S)-2-methoxypropoxy)-4-((R)-7-methyl-1,4-diazepan-1-yl)quinazolin-8-yl)oxy)methyl)phenyl)-1H-1,2,3-triazol-1-yl)-3-methylbutanoyl)-N—((R)-1-(4-(1-ethyl-1H-pyrazol-5-yl)phenyl)-2-hydroxyethyl)-4-hydroxypyrrolidine-2-carboxamide] | < 10 nM | < 10 nM | –
7 | CCn1nccc1-c1ccc([C@@H](NC(=O)[C@@H]2C[C@@H](O)CN2C(=O)[C@H](C(C)C)n2cc(-c3ccc(COc4c(-c5c(C)c(F)cc6[nH]ncc56)c(C5CC5)cc5c(N6C[C@@H]7C[C@H]6CN7)nc(O[C@H]6C[C@H](OC)C6)nc45)cc3)nn2)[C@H](C)O)cn1 [Example 193, (2S,4R)-1-((2S)-2-(4-(4-(((4-((1S,4S)-2,5-diazabicyclo[2.2.1]heptan-2-yl)-6-cyclopropyl-7-(6-fluoro-5-methyl-1H-indazol-4-yl)-2-((1r,3S)-3-methoxycyclobutoxy)quinazolin-8-yl)oxy)methyl)phenyl)-1H-1,2,3-triazol-1-yl)-3-methylbutanoyl)-N-((1R,2S)-1-(6-(1-ethyl-1H-pyrazol-5-yl)pyridin-3-yl)-2-hydroxypropyl)-4-hydroxypyrrolidine-2-carboxamide] | 10 to 100 nM | < 10 nM | –
8 | CCn1nccc1-c1ccc([C@H](CO)NC(=O)[C@@H]2C[C@@H](O)CN2C(=O)[C@H](C(C)C)n2cc(-c3ccc(COc4c(-c5c(C)c(F)cc6[nH]ncc56)c(C5CC5)cc5c(N6C[C@@H]7C[C@H]6CN7)nc(OCC6COC7OCCC67)nc45)cc3)nn2)cc1 (stereo partly drawn) [Example 51, (2S,4R)-1-((2S)-2-(4-(4-(((4-((1S,4S)-2,5-diazabicyclo[2.2.1]heptan-2-yl)-6-cyclopropyl-7-(6-fluoro-5-methyl-1H-indazol-4-yl)-2-((hexahydrofuro[2,3-b]furan-3-yl)methoxy)quinazolin-8-yl)oxy)methyl)phenyl)-1H-1,2,3-triazol-1-yl)-3-methylbutanoyl)-N—((R)-1-(4-(1-ethyl-1H-pyrazol-5-yl)phenyl)-2-hydroxyethyl)-4-hydroxypyrrolidine-2-carboxamide] | < 10 nM | < 10 nM | –
9 | CCn1nccc1-c1cc(F)c([C@@H](NC(=O)[C@@H]2C[C@@H](O)CN2C(=O)[C@H](C(C)C)n2cc(-c3ccc(COc4c(-c5c(C)c(F)cc6[nH]ncc56)c(C5CC5)cc5c(N6C[C@@H]7C[C@H]6CN7)nc(O[C@H]6C[C@H](OC)C6)nc45)cc3)nn2)[C@H](C)O)c(F)c1 [Example 196, (2S,4R)-1-((2S)-2-(4-(4-(((4-((1S,4S)-2,5-diazabicyclo[2.2.1]heptan-2-yl)-6-cyclopropyl-7-(6-fluoro-5-methyl-1H-indazol-4-yl)-2-((1r,3S)-3-methoxycyclobutoxy)quinazolin-8-yl)oxy)methyl)phenyl)-1H-1,2,3-triazol-1-yl)-3-methylbutanoyl)-N-((1R,2S)-1-(4-(1-ethyl-1H-pyrazol-5-yl)-2,6-difluorophenyl)-2-hydroxypropyl)-4-hydroxypyrrolidine-2-carboxamide] | 10 to 100 nM | 10 to 100 nM | –
10 | CCn1nccc1-c1ccc([C@H](CO)NC(=O)[C@@H]2C[C@@H](O)CN2C(=O)[C@H](C(C)C)n2cc(-c3ccc(COc4c(-c5c(C)c(F)cc6[nH]ncc56)c(C5CC5)cc5c(N(C)[C@H]6[C@@H]7CN[C@H]6C7)nc(OC[C@H](C)OC)nc45)cc3)nn2)cc1 [Example 197, (2S,4R)-1-((2S)-2-(4-(4-(((4-(((1S,4S,5S)-2-azabicyclo[2.1.1]hexan-5-yl)(methyl)amino)-6-cyclopropyl-7-(6-fluoro-5-methyl-1H-indazol-4-yl)-2-((S)-2-methoxypropoxy)quinazolin-8-yl)oxy)methyl)phenyl)-1H-1,2,3-triazol-1-yl)-3-methylbutanoyl)-N—((R)-1-(4-(1-ethyl-1H-pyrazol-5-yl)phenyl)-2-hydroxyethyl)-4-hydroxypyrrolidine-2-carboxamide] | < 10 nM | < 10 nM | –
11 | CCn1nccc1-c1ccc([C@@H](NC(=O)[C@@H]2C[C@@H](O)CN2C(=O)[C@H](C(C)C)n2cc(-c3ccc(COc4c(-c5c(C)c(F)cc6[nH]ncc56)c(C5CC5)cc5c(N6C[C@@H]7C[C@H]6CN7)nc(O[C@H]6C[C@H](OC)C6)nc45)cc3)nn2)[C@@H](C)O)cc1 [Example 131, (2S,4R)-1-((2S)-2-(4-(4-(((4-((1S,4S)-2,5-diazabicyclo[2.2.1]heptan-2-yl)-6-cyclopropyl-7-(6-fluoro-5-methyl-1H-indazol-4-yl)-2-((1r,3S)-3-methoxycyclobutoxy)quinazolin-8-yl)oxy)methyl)phenyl)-1H-1,2,3-triazol-1-yl)-3-methylbutanoyl)-N-((1R,2R)-1-(4-(1-ethyl-1H-pyrazol-5-yl)phenyl)-2-hydroxypropyl)-4-hydroxypyrrolidine-2-carboxamide] | < 10 nM | < 10 nM | –
